ChEMBL document CHEMBL1140042, “A 4-aminobenzoic acid derivative as novel lead for selective inhibitors of multidrug resistance-associated proteins” (Bioorg Med Chem Lett, 2008)

Legend:
[1] = biological target: ATP-binding cassette sub-family C member 2 (Homo sapiens, UniProt Q92887); assay: Inhibition of human MRP2 expressed in dog MDCK2 cells; type: cell-based, MDCK-II; conditions: for Activity: human, mdck-ii
[2] = biological target: ATP-dependent translocase ABCB1 (Homo sapiens, UniProt P08183); assay: Inhibition of P-gp in human A2780 cells; type: cell-based; conditions: for Activity: human, a2780
ATP-dependent translocase ABCB1, sequence (P08183 whole entry): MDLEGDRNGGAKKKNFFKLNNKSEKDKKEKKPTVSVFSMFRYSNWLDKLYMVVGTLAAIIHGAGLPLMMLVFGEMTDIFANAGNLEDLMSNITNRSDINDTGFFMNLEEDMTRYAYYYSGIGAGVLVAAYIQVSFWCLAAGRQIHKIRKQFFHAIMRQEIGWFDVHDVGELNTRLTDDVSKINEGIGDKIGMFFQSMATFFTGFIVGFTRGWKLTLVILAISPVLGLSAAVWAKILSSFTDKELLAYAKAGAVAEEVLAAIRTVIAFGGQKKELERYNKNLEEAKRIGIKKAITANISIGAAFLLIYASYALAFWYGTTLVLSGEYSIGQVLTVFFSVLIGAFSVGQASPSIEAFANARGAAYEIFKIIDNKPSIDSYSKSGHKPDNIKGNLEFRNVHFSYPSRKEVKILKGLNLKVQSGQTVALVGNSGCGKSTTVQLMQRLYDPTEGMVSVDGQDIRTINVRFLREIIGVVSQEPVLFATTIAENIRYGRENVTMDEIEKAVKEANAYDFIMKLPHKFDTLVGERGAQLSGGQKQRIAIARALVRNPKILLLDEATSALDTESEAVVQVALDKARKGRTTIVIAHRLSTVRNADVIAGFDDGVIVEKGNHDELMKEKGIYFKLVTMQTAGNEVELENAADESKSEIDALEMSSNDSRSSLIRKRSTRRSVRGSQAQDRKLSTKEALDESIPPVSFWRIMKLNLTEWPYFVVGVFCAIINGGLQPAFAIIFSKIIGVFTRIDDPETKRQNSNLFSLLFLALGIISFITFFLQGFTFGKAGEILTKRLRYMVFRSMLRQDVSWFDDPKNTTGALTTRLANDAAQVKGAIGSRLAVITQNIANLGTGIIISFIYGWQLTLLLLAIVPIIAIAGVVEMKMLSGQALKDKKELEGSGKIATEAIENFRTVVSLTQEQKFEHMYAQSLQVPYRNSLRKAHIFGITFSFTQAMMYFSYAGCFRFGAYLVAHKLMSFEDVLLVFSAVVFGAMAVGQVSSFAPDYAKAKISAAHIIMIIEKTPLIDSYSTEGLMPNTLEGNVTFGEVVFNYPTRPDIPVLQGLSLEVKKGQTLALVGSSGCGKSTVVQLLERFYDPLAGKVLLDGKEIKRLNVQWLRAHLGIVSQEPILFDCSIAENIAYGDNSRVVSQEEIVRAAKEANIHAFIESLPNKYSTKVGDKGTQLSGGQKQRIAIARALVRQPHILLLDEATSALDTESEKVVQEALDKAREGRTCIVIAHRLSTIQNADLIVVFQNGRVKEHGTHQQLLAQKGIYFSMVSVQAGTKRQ

[3] = biological target: Multidrug resistance-associated protein 1 (Homo sapiens, UniProt P33527); assay: Inhibition of human MRP1 in human 2008 cells assessed as increase in calcein-AM accumulation; type: cell-based
Multidrug resistance-associated protein 1, sequence (P33527 whole entry): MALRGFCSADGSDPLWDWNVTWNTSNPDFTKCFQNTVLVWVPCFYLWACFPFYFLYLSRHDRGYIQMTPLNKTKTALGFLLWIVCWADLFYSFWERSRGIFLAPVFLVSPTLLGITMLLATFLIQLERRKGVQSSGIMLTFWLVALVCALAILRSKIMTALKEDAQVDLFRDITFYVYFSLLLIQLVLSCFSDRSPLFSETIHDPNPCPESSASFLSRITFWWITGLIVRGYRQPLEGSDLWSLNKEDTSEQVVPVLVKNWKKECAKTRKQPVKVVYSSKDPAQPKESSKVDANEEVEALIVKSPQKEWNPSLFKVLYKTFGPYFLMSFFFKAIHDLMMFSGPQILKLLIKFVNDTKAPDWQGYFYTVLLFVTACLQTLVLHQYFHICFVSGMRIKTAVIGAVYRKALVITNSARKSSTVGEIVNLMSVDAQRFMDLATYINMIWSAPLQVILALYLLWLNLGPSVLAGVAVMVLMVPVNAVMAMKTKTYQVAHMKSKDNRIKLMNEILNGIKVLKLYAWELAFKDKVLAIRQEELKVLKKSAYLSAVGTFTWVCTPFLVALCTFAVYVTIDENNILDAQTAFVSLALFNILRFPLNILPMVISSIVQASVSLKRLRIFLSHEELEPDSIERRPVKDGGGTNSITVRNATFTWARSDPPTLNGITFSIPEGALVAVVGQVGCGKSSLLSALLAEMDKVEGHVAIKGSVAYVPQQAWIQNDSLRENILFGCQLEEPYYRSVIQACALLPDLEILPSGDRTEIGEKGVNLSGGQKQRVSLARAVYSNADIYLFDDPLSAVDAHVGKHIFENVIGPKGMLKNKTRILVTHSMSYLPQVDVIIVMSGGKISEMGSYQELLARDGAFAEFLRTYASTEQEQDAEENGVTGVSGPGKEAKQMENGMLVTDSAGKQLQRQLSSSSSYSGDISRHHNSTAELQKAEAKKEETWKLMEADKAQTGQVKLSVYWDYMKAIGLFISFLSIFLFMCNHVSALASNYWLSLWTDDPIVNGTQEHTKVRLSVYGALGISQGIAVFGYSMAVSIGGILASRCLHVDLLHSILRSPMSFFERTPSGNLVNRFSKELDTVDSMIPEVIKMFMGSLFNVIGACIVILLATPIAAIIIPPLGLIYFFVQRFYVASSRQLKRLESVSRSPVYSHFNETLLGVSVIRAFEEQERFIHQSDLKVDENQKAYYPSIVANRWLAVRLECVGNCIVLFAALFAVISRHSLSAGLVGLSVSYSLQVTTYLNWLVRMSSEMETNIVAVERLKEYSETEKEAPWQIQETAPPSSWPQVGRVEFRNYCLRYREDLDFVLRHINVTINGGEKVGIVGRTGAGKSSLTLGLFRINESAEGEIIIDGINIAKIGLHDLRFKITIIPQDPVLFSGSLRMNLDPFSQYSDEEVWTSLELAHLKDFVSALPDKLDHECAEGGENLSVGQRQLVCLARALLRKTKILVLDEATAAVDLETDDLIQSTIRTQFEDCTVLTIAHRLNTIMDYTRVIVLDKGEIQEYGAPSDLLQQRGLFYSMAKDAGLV

ATP-binding cassette sub-family C member 2, sequence (Q92887 whole entry): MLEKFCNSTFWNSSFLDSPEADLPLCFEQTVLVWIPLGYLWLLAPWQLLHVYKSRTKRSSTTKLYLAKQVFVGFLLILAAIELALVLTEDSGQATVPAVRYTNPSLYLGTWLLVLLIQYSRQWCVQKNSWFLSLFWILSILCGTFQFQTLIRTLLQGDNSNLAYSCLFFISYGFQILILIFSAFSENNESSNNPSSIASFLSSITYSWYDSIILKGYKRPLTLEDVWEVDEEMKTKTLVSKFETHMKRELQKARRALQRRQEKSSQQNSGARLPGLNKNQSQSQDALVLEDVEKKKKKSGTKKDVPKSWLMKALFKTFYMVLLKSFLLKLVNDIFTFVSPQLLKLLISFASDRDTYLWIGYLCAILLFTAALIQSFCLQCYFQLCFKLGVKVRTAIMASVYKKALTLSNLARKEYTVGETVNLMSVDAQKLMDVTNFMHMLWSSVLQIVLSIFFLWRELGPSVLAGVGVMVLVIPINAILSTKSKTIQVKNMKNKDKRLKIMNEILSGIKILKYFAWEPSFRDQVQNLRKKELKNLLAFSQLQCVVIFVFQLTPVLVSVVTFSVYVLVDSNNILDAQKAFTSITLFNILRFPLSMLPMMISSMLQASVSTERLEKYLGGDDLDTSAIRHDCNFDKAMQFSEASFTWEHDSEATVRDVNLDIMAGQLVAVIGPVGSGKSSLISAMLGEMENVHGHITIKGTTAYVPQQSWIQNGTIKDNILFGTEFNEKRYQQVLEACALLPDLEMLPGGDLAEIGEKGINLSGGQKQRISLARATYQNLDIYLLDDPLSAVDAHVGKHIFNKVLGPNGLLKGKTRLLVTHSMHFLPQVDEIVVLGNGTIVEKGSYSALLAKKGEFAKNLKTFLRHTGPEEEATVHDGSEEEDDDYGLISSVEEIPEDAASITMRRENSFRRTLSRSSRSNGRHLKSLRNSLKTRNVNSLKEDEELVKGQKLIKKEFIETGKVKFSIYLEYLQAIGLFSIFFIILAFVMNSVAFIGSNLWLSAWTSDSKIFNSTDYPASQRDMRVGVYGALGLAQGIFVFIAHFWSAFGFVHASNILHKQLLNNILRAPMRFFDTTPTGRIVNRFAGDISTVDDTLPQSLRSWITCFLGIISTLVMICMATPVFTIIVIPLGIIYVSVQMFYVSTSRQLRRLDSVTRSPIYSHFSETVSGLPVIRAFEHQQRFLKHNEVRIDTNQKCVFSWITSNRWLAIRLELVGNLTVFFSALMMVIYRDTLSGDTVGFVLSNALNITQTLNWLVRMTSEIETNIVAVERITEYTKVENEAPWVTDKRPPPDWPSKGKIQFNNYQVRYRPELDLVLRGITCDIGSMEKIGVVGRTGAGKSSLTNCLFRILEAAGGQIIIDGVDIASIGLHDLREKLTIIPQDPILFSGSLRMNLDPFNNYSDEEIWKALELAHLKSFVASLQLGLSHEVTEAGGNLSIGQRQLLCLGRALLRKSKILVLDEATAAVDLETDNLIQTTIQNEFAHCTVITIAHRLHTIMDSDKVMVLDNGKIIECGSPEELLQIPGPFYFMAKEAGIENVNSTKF

Row | IC50 [1] [µM] | Activity [2] | Activity [3] | Activity [1] | IC50 [2] [µM] | Structure (SMILES)
1 | 21.5 | Not Active | Active |  |  | O=C(O)c1ccc(Nc2nc3sc4c(c3c(=O)s2)CCCC4)cc1
2 |  |  |  | Not Active | > 200 | Nc1nc2sc3c(c2c(=O)s1)CCCC3
3 | 20.7 | Not Active |  |  |  | CN(C)C(=O)CCSC(SCCC(=O)[O-])c1cccc(/C=C/c2ccc3ccc(Cl)cc3n2)c1.[Na+] (stereo not drawn)
4 |  | Not Active |  | Not Active |  | O=C(Nc1nc2sc3c(c2c(=O)s1)CCCC3)c1ccccc1
5 | > 200 | Not Active |  |  |  | CCOC(=O)c1c(NC(=S)Nc2ccc(C(=O)O)cc2)sc2c1CCCC2
6 | 235 | Not Active |  |  |  | COc1ccc2c(c1)c(CC(=O)O)c(C)n2C(=O)c1ccc(Cl)cc1 [INDOMETHACIN]
